Results published in paper PMC11680790, “Structural and functional determination of peptide versus small molecule ligand binding at the apelin receptor” (Nature Communications, 2024).
Substitutions are numbered along the chain they refer to.

Legend:
Chrom logD = format: physicochemical; details: chromatographic
apelin receptor = assay: DiscoveRx cAMP assay, CHO-K1 stably expressing the apelin receptor; format: cell-based, human; details: stably expressing CHO-K1, forskolin stimulated cAMP
Excerpt: (§1) (A) ERK1/2 and (B) eNOS in PAECs and ERK1/2 in (C) control and (D) PAH PASMcs following treatment with 0.1% serum (control), […]
(§2) measures with Tukey’s post-test for multiple comparisons. […]
(§3) difference in down-stream signalling with the endogenous ligands used in our study.
(§4) However, dynamic mass redistribution assays are a widely used (over 400 references in Pubmed) and generally accepted robust label-free technology to measure ligand-induced changes in the mass of cells and provides an integrated cellular response, comprising multiple pathways and cellular events. We believe
(§5) DMR is robust for testing the function of apelin receptor variants, particularly when combined with our radioligand binding assays. […]
(§6) recommended.’ We thank the referee for the recommendation but we were not successful in generating additional data in the apelin receptor variants with downstream signalling functional assays that we carried […]
(§7) We have tried to test the function of apelin receptor variants in a DiscoveRx cAMP assay. The figure below […]
(§8) Provided in the assay kit, CHO-K1 cells stably expressing the apelin receptor (shown in green) responded as […]
(§9) the levels of forskolin stimulated cAMP accumulation and decreasing the fluorescent signal in relative li ght units (RLU). CHO-K1 cells transiently transfected in-house with either wild-type (black), T/M89 (red), or […]

[1] = biological target: T1, wild-type apelin receptor (Homo sapiens, UniProt P35414); assay: DiscoveRx cAMP assay, CHO-K1 transiently transfected, wild-type; format: cell-based
T1 construct: expressed in transfected cells; host or cells: CHO-K1 (ECACC 85051005), transient, pcDNA3.1
T1 sequence (P35414 1-380): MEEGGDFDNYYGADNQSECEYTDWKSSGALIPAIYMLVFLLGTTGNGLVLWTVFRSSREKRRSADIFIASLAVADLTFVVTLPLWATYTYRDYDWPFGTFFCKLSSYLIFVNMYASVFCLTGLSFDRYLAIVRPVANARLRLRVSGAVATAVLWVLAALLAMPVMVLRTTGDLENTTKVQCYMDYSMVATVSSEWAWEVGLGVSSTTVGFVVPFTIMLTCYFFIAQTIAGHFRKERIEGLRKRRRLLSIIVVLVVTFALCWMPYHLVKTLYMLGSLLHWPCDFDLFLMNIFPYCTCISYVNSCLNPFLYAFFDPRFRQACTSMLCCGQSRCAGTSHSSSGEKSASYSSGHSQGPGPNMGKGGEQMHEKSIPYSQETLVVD
Excerpt: (1 picture or pasted object on this page, not shown here)

T/M89 apelin receptor = assay: DiscoveRx cAMP assay, CHO-K1 transiently transfected, T/M89; format: cell-based, human
Excerpt: as §1, §2, §3, §4, §5, §6, §7, §8, §9

R/H168 apelin receptor = assay: DiscoveRx cAMP assay, CHO-K1 transiently transfected, R/H168; format: cell-based, human
Excerpt: as §1, §2, §3, §4, §5, §6, §7, §8, §9

human apelin receptor = biological target: T2, human apelin receptor (Homo sapiens, UniProt P35414); design: method as in 2 sources, ref Read et al., 2016, PMID:27475715 ||| ref Read et al. Biochem Pharmacol. 2016; details: cited from earlier work
T2 sequence (P35414 1-380): T1 sequence (P35414 1-380)

anaesthetised rats = tested on: anaesthetised rats; design: method as in 2 sources, ref Read et al. Biochem Pharmacol 2016 ||| ref Yang et al., Circulation. 2017; details: cited from earlier work
[2] = tested on: apelin receptor in human, rat and mouse heart; design: method as in Read et al. Biochem Pharmacol. 2016; details: ref Read et al. Biochem Pharmacol. 2016; cited from earlier work
apelin receptor NxStaR = biological target: T3, apelin receptor NxStaR (Homo sapiens, UniProt P35414, F214L/I224A/N112A/S298A/T207M/T87V); assay: SPR, pH dependence (Biacore 8K+), NxStaR; details: 5% DMSO, 10 °C, single determination
T3 sequence (P35414 1-380 T87V/N112A/T207M/F214L/I224A/S298A): T1 sequence (P35414 1-380) with T87V, N112A, T207M, F214L, I224A, S298A
Protocol: (§10) Both were equipped with a NTA sensor chip (Cytiva). […] 0.5 M EDTA pH 8.0 was injected for 60 s at 5 µL/min followed by a 60 s injection of run buffer containing 0.5 mM NiCl2. The surface was activated with a 1:1 mixture of 0.1 M NHS and 0.5 M EDC at a flow rate of 10 µL/min for 420 s. The receptors were injected at a concentration of 1 µM at 5 µL/min until a surface response of 5000 RU was achieved. The surface was equilibrated for 12 h in buffer before commencing experiments.
(§11) Compound and peptide binding was measured in pH 7.5 buffer previously described and in buffer at pH 6.0 comprising of 0.025 M MES, pH 6.0, 0.15 M NaCl, 0.02% DDM, 5% DMSO. The analyses were run in single-cycle format with four concentration points in a twofold dilution series. […] The association phase was 60 s for each concentration and the dissociation phase was 300 s. There were 4 blank cycles between compound injections.
(§12) The data were processed using Biacore T200 Evaluation Software (Version 2.0, Cytiva) and Biacore Insight Evaluation Software (Version 5.0, Cytiva). Sensorgrams were reference and blank subtracted before fitting with 1:1 binding model which accounted for drift, bulk shift and mass transport.

[3] = biological target: T4, R/H168^4.64 variant NxStaR (Homo sapiens, UniProt P35414, F214L/I224A/N112A/R168H/S298A/T207M/T87V); assay: SPR, pH dependence (Biacore 8K+), R/H168^4.64 NxStaR; details: 5% DMSO, 10 °C, single determination
T4 sequence (P35414 1-380 T87V/N112A/R168H/T207M/F214L/I224A/S298A): T1 sequence (P35414 1-380) with T87V, N112A, R168H, T207M, F214L, I224A, S298A
Protocol: as §10, §11, §12

rat = tested on: rat; design: method as in Yang et al., Circulation. 2017; details: 21 days, rats; ref Yang et al., Circulation. 2017; cited from earlier work
[4] = ref Read et al. Biochem Pharmacol. 2016

CCC(CC)n1c(Cc2cccs2)nc2cc(C(=O)N[C@H](CC(=O)O)CC(C)C)ccc21 [CMF-019]
Chrom logD (Chrom logD): 3.14
cAMP response (apelin receptor): reducing
cAMP response [1]: did not show an observable response
cAMP response (T/M89 apelin receptor): did not show an observable response
cAMP response (R/H168 apelin receptor): did not show an observable response
bias factor cAMP vs receptor internalisation (human apelin receptor; [4]): ~ 5000
bias factor cAMP vs β-arrestin recruitment (human apelin receptor; [4]): ~ 400
cAMP potency versus [Pyr1]apelin-13 (human apelin receptor; [4]): comparable potency to [Pyr1]apelin-13
bias towards G protein pathway over beta-arrestin (human apelin receptor; ref Read et al., 2016, PMID:27475715): 2250
stroke volume and cardiac output (anaesthetised rats; anaesthetised rats, ref Read et al. Biochem Pharmacol 2016): increased stroke volume and cardiac output
peripheral arterial pressure (anaesthetised rats; i.v. CMF-019 potassium salt, anaesthetised rat, ref Read et al. Biochem Pharmacol 2016): reduced peripheral arterial pressure
left ventricular contractility (anaesthetised rats; i.v. CMF-019 potassium salt, anaesthetised rats, ref Read et al. Biochem Pharmacol 2016): dose dependent increases in left ventricular contractility
competition for specific binding of apelin [2]: competes for the specific binding of apelin
Kd (apelin receptor NxStaR; pH 6.0 (MES), 0.02% DDM): 3.4 nM
Kd (apelin receptor NxStaR; pH 7.5, 0.02% DDM): 6.1 nM
Kd ([3]; pH 6.0 (MES), 0.02% DDM): 14.6 nM
Kd ([3]; pH 7.5, 0.02% DDM): 68.7 nM

NCLQRRCMPLHSRVPFP [ELA, endogenous peptide Elabela/Toddler]
systemic vasodilatation (anaesthetised rats; carotid artery catheterisation, ref Yang et al., Circulation. 2017): caused acute systemic vasodilatation
blood pressure, chronic ELA treatment (rat): did not significantly affect systemic blood pressure
